Laboratory results published in article PMC3535334 (Nature Communications, 2012).

Biological target: Nano-lantern (ATP1)
Conditions: 20 nM protein, 50 mM HEPES pH 7.2, coelenterazine-h 1-10 μM

Nc1ncnc2c1ncn2[C@@H]1O[C@H](COP(=O)(O)OP(=O)(O)OP(=O)(O)O)[C@@H](O)[C@H]1O [ATP] showed a Kd of 300 µM.
